Experimental data: PMC7818428, “Potential Dental Biofilm Inhibitors: Dynamic Combinatorial Chemistry Affords Sugar‐Based Molecules that Target Bacterial Glucosyltransferase” (Chemmedchem, 2020)

Molecular target: T1, GTF180-ΔN (GTF180) (Limosilactobacillus reuteri, UniProt Q5SBN3)
T1 construct: N-terminally truncated GTF180-ΔN (catalytic and C-terminal domains), 117 kDa
Experiment: UPLC-MS of dynamic combinatorial library (cleavage to A1H8)
Format: biochemical
Details: 30 μM protein, mixture of library members with 10 mM aniline, pH 5.2, 10 % DMSO, room temperature

T1 sequence (Q5SBN3 entry or part of it, stated change not applied): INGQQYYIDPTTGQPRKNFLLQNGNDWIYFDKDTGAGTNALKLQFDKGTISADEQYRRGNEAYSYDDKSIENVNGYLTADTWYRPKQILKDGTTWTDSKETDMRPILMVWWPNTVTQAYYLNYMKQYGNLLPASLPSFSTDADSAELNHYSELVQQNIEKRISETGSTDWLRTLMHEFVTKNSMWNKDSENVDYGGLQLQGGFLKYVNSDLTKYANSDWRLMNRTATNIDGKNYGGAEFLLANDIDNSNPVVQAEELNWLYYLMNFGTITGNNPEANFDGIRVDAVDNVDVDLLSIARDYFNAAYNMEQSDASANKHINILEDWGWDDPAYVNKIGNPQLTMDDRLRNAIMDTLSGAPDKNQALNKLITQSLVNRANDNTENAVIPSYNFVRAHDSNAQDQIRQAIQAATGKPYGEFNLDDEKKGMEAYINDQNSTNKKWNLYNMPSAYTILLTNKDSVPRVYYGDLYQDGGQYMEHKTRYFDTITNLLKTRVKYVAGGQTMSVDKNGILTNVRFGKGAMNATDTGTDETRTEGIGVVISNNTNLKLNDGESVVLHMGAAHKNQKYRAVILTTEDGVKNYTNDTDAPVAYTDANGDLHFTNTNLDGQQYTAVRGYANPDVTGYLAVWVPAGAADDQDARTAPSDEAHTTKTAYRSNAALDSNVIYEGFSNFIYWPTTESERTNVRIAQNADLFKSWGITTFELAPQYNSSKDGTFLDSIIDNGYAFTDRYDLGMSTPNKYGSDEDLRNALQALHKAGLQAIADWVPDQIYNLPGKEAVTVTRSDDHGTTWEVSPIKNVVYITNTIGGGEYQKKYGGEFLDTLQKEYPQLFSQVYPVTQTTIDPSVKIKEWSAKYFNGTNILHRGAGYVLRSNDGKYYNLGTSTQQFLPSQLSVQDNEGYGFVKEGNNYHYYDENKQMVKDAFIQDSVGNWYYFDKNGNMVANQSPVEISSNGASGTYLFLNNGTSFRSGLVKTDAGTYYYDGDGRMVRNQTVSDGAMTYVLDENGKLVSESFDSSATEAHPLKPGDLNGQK

O=C(CC1CCCC1)N/N=C/c1ccc(O[C@@H]2O[C@H](CO)[C@@H](O[C@H]3O[C@H](CO)[C@@H](O)[C@H](O)[C@H]3O)[C@H](O)[C@H]2O)cc1 [A2H8]
UPLC-MS of dynamic combinatorial library (cleavage to A1H8): maltose‐derived acylhydrazones A2H2 and A2H8 with a lipophilic
